# PMC3720860, “Molecular and Functional Characterization of Odorant-Binding Protein Genes in an Invasive Vector Mosquito, Aedes albopictus” (PLoS ONE, 2013)
# Assays:
# Format in all cases: binding
# [1] = target: T1, AalbOBP37 (Aedes albopictus, UniProt M4VP05); experiment: 1-NPN competitive fluorescence displacement; conditions: 20 mM sodium acetate, pH 7.4, 25 C; 25 ug/ml protein; ligand 6.4-19.2 uM; 32 uM 1-NPN
# T1 construct: 6xHis-tag fusion, pET-22b(+), E. coli BL21 (DE3); Ni-NTA and gel filtration
# T1 sequence (M4VP05 19-149 limits assumed): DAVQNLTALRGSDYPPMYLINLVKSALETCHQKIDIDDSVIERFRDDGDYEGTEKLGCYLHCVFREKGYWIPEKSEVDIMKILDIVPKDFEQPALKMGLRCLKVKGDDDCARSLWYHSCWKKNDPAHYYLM
# [2] = target: T2, AalbOBP39 (Aedes albopictus, UniProt M4W733); experiment: 1-NPN competitive fluorescence displacement; conditions: 20 mM sodium acetate, pH 7.4, 25 C; 25 ug/ml protein; ligand 6.4-19.2 uM; 30.4 uM 1-NPN
# T2 construct: 6xHis-tag fusion, pET-22b(+), E. coli BL21 (DE3); Ni-NTA and gel filtration
# T2 sequence (M4W733 19-143): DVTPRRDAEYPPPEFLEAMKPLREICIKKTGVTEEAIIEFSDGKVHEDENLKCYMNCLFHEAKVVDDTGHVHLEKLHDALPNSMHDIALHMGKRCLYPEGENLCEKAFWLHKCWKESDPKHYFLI
# [3] = target: T2, AalbOBP39; experiment: direct fluorescence titration; conditions: 20 mM sodium acetate, pH 7.4, 25 C; 25 ug/ml protein; excitation 337 nm; reporter ligand
# [4] = target: T1, AalbOBP37; experiment: direct fluorescence titration; conditions: 20 mM sodium acetate, pH 7.4, 25 C; 25 ug/ml protein; excitation 337 nm; reporter ligand
smiles,measurement,setting,value
c1ccc2[nH]ccc2c1 [indole],normalized 1-NPN fluorescence,[1],AalbOBP37 and AalbOBP39 exhibited relatively strong binding to both indole and skatole
same,normalized 1-NPN fluorescence,[2],AalbOBP37 and AalbOBP39 exhibited relatively strong binding to both indole and skatole
CCN(CC)C(=O)c1cccc(C)c1 [DEET],normalized 1-NPN fluorescence,[1],AalbOBP37 showed high affinity to DEET and 1-octen-3-ol
same,normalized 1-NPN fluorescence,[2],AalbOBP39 showed relatively low affinity to DEET and 1-octen-3-ol
Cc1c[nH]c2ccccc12 [skatole],normalized 1-NPN fluorescence,[1],AalbOBP37 and AalbOBP39 exhibited relatively strong binding to both indole and skatole
same,normalized 1-NPN fluorescence,[2],AalbOBP37 and AalbOBP39 exhibited relatively strong binding to both indole and skatole
c1ccc(Nc2cccc3ccccc23)cc1 [N-phenyl-1-naphthylamine],direct fluorescence titration,[3],"only target OBPs could bind 1-NPN, which showed increasing fluorescent intensity"
same,direct fluorescence titration,[4],"only target OBPs could bind 1-NPN, which showed increasing fluorescent intensity"
C=CC(O)CCCCC (stereo not shown) [1-octen-3-ol],normalized 1-NPN fluorescence,[1],AalbOBP37 showed high affinity to DEET and 1-octen-3-ol
same,normalized 1-NPN fluorescence,[2],AalbOBP39 showed relatively low affinity to DEET and 1-octen-3-ol
